The record followed here is ChEMBL document CHEMBL1130578, “Solid-phase synthesis of a N-carboxyalkyl tripeptide combinatorial library” (Bioorg Med Chem Lett, 1997).

The structures appear in SMILES notation.

For this assay, the target named is Stromelysin-1 (Homo sapiens, UniProt P08254). Kind of assay: Inhibition of matrix metalloprotease-3.
Stromelysin-1, sequence (P08254 whole entry): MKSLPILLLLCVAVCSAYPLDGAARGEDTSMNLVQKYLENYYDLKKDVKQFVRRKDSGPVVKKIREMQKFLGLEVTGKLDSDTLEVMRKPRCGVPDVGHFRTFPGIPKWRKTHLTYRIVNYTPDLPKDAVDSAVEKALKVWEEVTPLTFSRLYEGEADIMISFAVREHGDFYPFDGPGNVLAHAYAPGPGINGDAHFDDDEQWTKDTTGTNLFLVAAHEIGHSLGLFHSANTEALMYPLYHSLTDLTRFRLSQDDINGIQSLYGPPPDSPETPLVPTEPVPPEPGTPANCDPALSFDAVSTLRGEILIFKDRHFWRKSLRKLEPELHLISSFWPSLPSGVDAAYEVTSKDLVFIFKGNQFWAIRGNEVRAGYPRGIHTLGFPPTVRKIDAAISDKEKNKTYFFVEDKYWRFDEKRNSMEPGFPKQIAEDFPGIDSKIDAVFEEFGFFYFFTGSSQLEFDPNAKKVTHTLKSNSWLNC

One may read the IC50 as the point on the concentration scale where inhibition reaches its midpoint. Take `CCCCCCC(N[C@@H](CCc1ccccc1)C(=O)N[C@@H](CCCN=C(N)N)C(=O)N[C@@H](Cc1cc2ccccc2[nH]1)C(=O)OC)C(=O)O` (stereo not given in full): the half-inhibitory concentration (IC50) was found to be 900 nM.
In the case of `CCCCCCC(N[C@@H](CCc1ccccc1)C(=O)N[C@@H](CCCN=C(N)N)C(=O)N[C@@H](CCC(N)=O)C(=O)OC)C(=O)O` (stereo not given in full) it was 900 nM; in that of `CCCCCCC(N[C@@H](CCc1ccccc1)C(=O)N[C@@H](CCCN=C(N)N)C(=O)N[C@@H](CC(C)C)C(=O)OC)C(=O)O` (stereo not given in full), 400 nM; in that of `CCCCCCC(N[C@@H](CCc1ccccc1)C(=O)N[C@@H](CCCN=C(N)N)C(=O)N[C@@H](CCc1ccccc1)C(=O)OC)C(=O)O` (stereo not given in full), 800 nM.
In the case of `CCCCCCC(N[C@@H](CCc1ccccc1)C(=O)N[C@@H](CCCN=C(N)N)C(=O)N[C@@H](CCCC)C(=O)OC)C(=O)O` (stereo not given in full) it was 900 nM.
